Source: patent US20240199571A1, “THIOPHENE COMPOUND AND APPLICATION THEREOF” (MEDSHINE DISCOVERY INC., priority 2021, published 2024)
Structures can show the parent of a compound that is named as a salt. Where two headings read alike, the source gives them in different places.

How the values were obtained:
[1] = Experiment 3: pharmacokinetic evaluation in CD-1 mice (IV and oral); format: in vivo; conditions: mouse, plasma; for clearance / half-life / Vd: IV 1 mg/kg; for clearance: read-out: Clearance rate CL; for half-life: read-out: Half life T1/2 (IV, h) (converted); for Vd: read-out: Volume of distribution at steady state Vdss; for bioavailability: PO 2 mg/kg vs IV 1 mg/kg, read-out: Bioavailability F (%); for AUC(0-t): PO 2 mg/kg, read-out: Area under drug-time curve AUC0-last PO; for Cmax: single dose, oral 2 mg/kg, read-out: Peak concentration Cmax
Protocol: Experiment 3: Pharmacokinetic Evaluation of Compounds
Experimental purpose: To test the pharmacokinetics of compounds in CD-1 mice in vivo
CD-1 mice (male/female, 7 to 9 weeks old, Shanghai SLAC)
The pharmacokinetic characteristics of the compounds in rodents after intravenous injection and oral administration were tested according to the standard protocol. In the experiment, the candidate compound was formulated into clear solutions, and a single intravenous injection and oral administration were given to mice. The vehicle for intravenous injection and oral administration was a mixed vehicle composed of 10% dimethyl sulfoxide and 90% hydroxypropyl β-cyclodextrin with a content of 10%. In this project, four male/female CD-1 mice were used. Two mice were injected intravenously at a dose of 1 mg/kg, and plasma samples were collected at 0.083, 0.25, 0.5, 1, 2, 4, 8, and 24 hours after administration; the other two were administered orally by gavage at a dose of 2 mg/kg, and plasma samples were collected at 0.25, 0.5, 1, 2, 4, 8, and 24 hours after administration. The samples were centrifuged at 3200 g for 10 minutes at 4° C., and plasma samples were obtained by separating the supernatant. A methanol solution containing internal standard with 20 times the volume of the sample was added thereto to precipitate the protein, and the mixture was centrifuged at 12000 g for 15 minutes at 4° C. 50 μL of the supernatant was taken and transferred to a 96-well plate and centrifuged again. The supernatant was taken for sampling. The plasma concentration was quantitatively analyzed using LC-MS/MS analysis method, and pharmacokinetic parameters, such as peak concentration (Cmax), clearance rate (CL), half-life (T1/2), volume of distribution at steady state (Vdss), area under drug-time curve (AUC0-last), bioavailability (F).

[2] = biological target: T1, human LSD1 (Homo sapiens (Human), UniProt O60341); test: Experiment 1A: in vitro LSD1 enzyme activity, enzyme-coupled fluorescence (HRP/Amplex Red), H3K4me peptide 20 μM (Wuhan Heyan); format: biochemical; conditions: histone H3K4me peptide 20 μM
Protocol: Experiment 1A: Evaluation of Enzyme Activity
Testing unit: Wuhan Heyan Biomedical Technology Co., Ltd.
The purpose of the assay was to test the in vitro inhibitory activity of the compounds against LSD1. The enzyme used in the assay was human LSD1, and the standard substrate was histone H3K4me peptide (20 μM). The activity of the compounds was determined by the enzyme-coupling fluorescent method by the combined detection of H2O2 generated after the reaction of LSD1 by horseradish peroxidase (HRP) and the fluorescent reagent Amplex Red. Starting from 10 μM, the compounds were 3-fold diluted to detect the IC50 values of the compounds at 10 concentrations. The enzyme and substrate were incubated for 30 minutes before the compound was added to the substrate to start the reaction. Fluorescence detector: EnVision, excitation wavelength: Ex/Em=530/590 nM.

[3] = system: NCI-H1417 cells; test: Experiment 2: inhibition of NCI-H1417 cell proliferation (CellTiter-Glo, 10 days); format: cell-based; conditions: Homo sapiens, 240 h, 10 days incubation
Outline: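 Cells at 1000 per well exposed to 10-point 3-fold dilutions from 10 μM top concentration for 10 days. Viability by CellTiter-Glo luminescence; inhibition normalized to max/min controls, IC50 from four-parameter fit.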

[4] = biological target: hERG potassium ion channels (Homo sapiens (Human), UniProt Q12809); test: Experiment 4: hERG potassium ion channel inhibition, automated patch clamp (Qpatch), CHO-hERG cells; format: cell-based; conditions: highest test concentration 40 μM
Chain of hERG potassium ion channels (Q12809 whole entry): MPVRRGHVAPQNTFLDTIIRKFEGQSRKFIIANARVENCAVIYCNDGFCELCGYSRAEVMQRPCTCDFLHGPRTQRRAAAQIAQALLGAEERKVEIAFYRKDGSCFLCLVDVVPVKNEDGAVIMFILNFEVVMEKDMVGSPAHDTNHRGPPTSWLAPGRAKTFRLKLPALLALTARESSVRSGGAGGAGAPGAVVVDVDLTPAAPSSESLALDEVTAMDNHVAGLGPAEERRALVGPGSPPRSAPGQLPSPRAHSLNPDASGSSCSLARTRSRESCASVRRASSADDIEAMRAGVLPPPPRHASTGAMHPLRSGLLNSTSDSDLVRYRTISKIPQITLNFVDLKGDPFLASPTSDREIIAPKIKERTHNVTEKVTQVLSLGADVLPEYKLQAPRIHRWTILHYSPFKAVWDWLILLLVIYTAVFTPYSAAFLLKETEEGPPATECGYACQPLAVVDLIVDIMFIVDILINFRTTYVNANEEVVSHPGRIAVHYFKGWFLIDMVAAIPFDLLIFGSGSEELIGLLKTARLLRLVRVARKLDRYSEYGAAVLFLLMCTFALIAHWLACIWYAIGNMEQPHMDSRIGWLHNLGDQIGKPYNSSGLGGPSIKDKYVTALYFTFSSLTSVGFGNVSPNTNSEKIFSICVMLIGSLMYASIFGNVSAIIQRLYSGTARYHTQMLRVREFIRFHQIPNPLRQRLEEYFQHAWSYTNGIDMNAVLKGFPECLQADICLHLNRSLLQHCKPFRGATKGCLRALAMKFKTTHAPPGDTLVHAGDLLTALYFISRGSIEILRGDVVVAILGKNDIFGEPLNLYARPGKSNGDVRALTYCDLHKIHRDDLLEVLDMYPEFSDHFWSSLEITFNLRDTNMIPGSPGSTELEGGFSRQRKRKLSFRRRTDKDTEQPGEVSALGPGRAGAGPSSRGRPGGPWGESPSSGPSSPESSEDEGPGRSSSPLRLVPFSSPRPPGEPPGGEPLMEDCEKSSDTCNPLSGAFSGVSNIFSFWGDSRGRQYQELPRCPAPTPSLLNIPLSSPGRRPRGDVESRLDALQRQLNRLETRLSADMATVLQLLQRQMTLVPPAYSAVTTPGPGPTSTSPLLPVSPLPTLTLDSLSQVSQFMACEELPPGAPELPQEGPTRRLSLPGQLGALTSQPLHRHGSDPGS
Protocol: Experiment 4: hERG Potassium Ion Channel Inhibition Assay
Experimental purpose: To test the effects of the test examples on hERG potassium ion channels using an automated patch clamp method.
4.1.1 CHO-hERG cells were cultured in a 175 cm^2 culture flask. When the cell density grew from 60% to 80%, the culture medium was removed. The cells were washed once with 7 mL of PBS (Phosphate Buffered Saline), and then 3 mL of Detachin cell dissociation reagent was added thereto for digestion.
4.1.2 After the digestion was completed, 7 mL of culture medium was added thereto for neutralization, then the mixture was centrifuged, the supernatant was aspirated, and then 5 mL of culture medium was added thereto for resuspension to ensure a cell density of 2×10^6/mL to 5×10^6/ML.
The single-cell high-resistance sealing and whole-cell modeling formation processes were all automatically completed by the Qpatch instrument of the Shanghai Institute of Materia Medica, Chinese Academy of Sciences. After obtaining the whole-cell recording modeling, the cells were clamped at −80 mV, and before a 5-second +40 mV depolarizing stimulus was given, a 50-millisecond −50 mV prepulse was first given, then the voltage was repolarized to −50 mV and holden for 5 seconds, and finally returned to −80 mV. This voltage stimulus was applied every 15 seconds, recorded for 2 minutes, and then the extracellular fluid was recorded for 5 minutes, and then the administration process was initiated, with compound concentrations starting at the lowest test concentration. The voltage stimulus was given for 2.5 minutes for each test concentration, and after all concentrations had been continuously given, 3 μM the positive control compound, Cisapride, was given. At least 3 cells were tested per concentration (n≥3).
4.4.1 The compound stock solution was diluted with DMSO, and 20 μL of DMSO solution was added with 10 μL of the compound stock solution, and serially diluted 3-fold to 6 DMSO concentrations.
4.4.2 4 μL of 6 DMSO concentrations of compounds were taken respectively and added to 396 μL of extracellular fluid, and the mixture was diluted 100-fold to 6 intermediate concentrations, then 80 μL of 6 intermediate concentrations of compounds was taken and added to 320 μL of extracellular fluid, and the mixture was diluted 5-fold to the final test concentration.
4.4.3 The highest test concentration was 40 μM, and the concentrations were respectively 40, 13.3, 4.4, 1.48, 0.494, and 0.165 μM for a total of six concentrations.
4.4.5 The preparation of the compound was completed by the Bravo instrument throughout the dilution process.
Experimental data were analyzed by GraphPad Prism 5.0 software.

[5] = biological target: T1, human LSD1; test: Experiment 1B: in vitro LSD1 enzyme activity, enzyme-coupled fluorescence (HRP/Amplex Red), H3(1-21)K4me2 peptide 10 μM (Reaction Biology); format: biochemical; conditions: histone H3(1-21)K4me2 peptide 10 μM
Outline: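 Human LSD1 with 10 μM histone H3(1-21)K4me2 peptide; enzyme and substrate incubated 30 min before compound addition started the reaction. H2O2 detected via HRP/Amplex Red fluorescence (Ex/Em 535/590). IC50 from 10-point 3-fold dilutions starting at 10 μM.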

[6] = system: human small cell lung cancer NCI-H1417 cell subcutaneous xenograft tumor; test: Experiment 5: in vivo pharmacodynamic study, NCI-H1417 subcutaneous xenograft tumor in CB17-SCID mice; conditions: 10 mg/kg, p.o.; for Mean tumor volume ± SEM (mm^3) (Day 28): day 28 after administration; for TGI (%): tumor volume at day 28
Description: Experiment 5: In Vivo Pharmacodynamic Study of Compounds on CB17-SCID Mouse Model of Human Small Cell Lung Cancer NCI-H1417 Cell Subcutaneous Xenograft Tumor
The purpose of this experiment was to evaluate the in vivo efficacy of the compounds of the present disclosure on CB17-SCID mouse model of human small cell lung cancer NCI-H1417 cell subcutaneous xenograft tumor.
5.2 Experimental Animals: • Species: mice • Strain: CB17-SCID mice • Week age and weight: 6-8 weeks old, 18 to 22 grams • Gender: Female • Supplier: Beijing Vital River Laboratory Animal Technology Co., Ltd.
Human lung cancer cells NCI-H1417 were cultured in vitro in suspension in RPMI 1640 medium with 10% fetal bovine serum, 100 U/mL penicillin, and 100 μg/mL streptomycin at 37° C. in a 5% CO2 cell culture incubator. Routine digestion and passage treatment were performed twice a week. When the number of cells reached the required number, the cells were counted and resuspended in PBS at a density of 10×10^6 cells/200 μL.
0.2 mL of NCI-H1417 tumor cells (containing 10×10^6 cells) suspension (PBS: matrix gel=1:1) was subcutaneously inoculated on the right back of mice, and in pharmacodynamic experiments, on the 16th day after cell inoculation, when the average tumor volume reached 86 mm^3, the subjects were randomly grouped and the administration started.
The experimental vehicle was 5% dimethyl sulfoxide/95% (10% Solutol) solution. Preparation method: 3.8 mL of […] was taken and added to 34.2 mL of double-distilled water, 2 mL of dimethyl sulfoxide was added thereto, and the mixture was mixed well. The test substance was dissolved with the vehicle, prepared as a homogeneous solution of a certain concentration, and stored at 4° C.
The experimental indicator was to examine whether tumor growth was inhibited, delayed, or cured. The tumor diameter was measured twice a week using vernier calipers. The calculation formula of tumor volume is V=0.5a×b^2, wherein a and b represent the long and short diameters of the tumor respectively.
The tumor inhibitory efficacy of compounds was evaluated by TGI (%). TGI (%) reflects the tumor growth inhibition rate. Calculation of TGI (%): TGI (%)=[1−(Average tumor volume at the end of administration in a certain treatment group−Average tumor volume at the beginning of administration in this treatment group)/(Average tumor volume at the end of treatment in the vehicle control group−Average tumor volume at the beginning of treatment in the vehicle control group)]×100%.

## COc1ccc(-c2sc(C(=O)N3C4CCC3C(N)C4)cc2-c2ccc(C#N)c(F)c2)cc1F (racemic) [Hydrochloride of compound 2]
[1]; female CD-1 mice
  clearance: 19.6 mL/min/kg
  half-life: 5.23 h
  Vd: 7.9 L/kg
  bioavailability: 47.7%
  AUC(0-t): 1.43 µM·h
  Cmax: 209 nM
[2]
  IC50: 122 nM
[3]
  IC50: 1.75 nM

## CC(C)(CO)n1nnc2cc(-c3sc(C(=O)N4CCC[C@@H](N)C4)cc3-c3ccc(C#N)c(F)c3)c(F)c(F)c21 [Hydrochloride of compound 99]
[4]
  IC50: 27000 nM
[1]; male CD-1 mice
  clearance: 42 mL/min/kg
  half-life: 2.48 h
  Vd: 7.23 L/kg
  bioavailability: 47.7%
  AUC(0-t): 0.625 µM·h
  Cmax: 145 nM
[5]
  IC50: 17.4 nM
[3]
  IC50: 4.26 nM

## COc1ccc(-c2sc(C(=O)N3CCC(N)CC3)cc2-c2ccc(C#N)c(F)c2)cc1F [Hydrochloride of compound 4]
[2]
  IC50: 110 nM
[3]
  IC50: 30.1 nM

## COc1ccc(-c2sc(C(=O)N3CCC[C@@H](N)C3)cc2-c2ccc(C#N)c(F)c2)cc1F [Hydrochloride of compound 1]
[1]; female CD-1 mice
  clearance: 17.8 mL/min/kg
  half-life: 5.59 h
  Vd: 7.66 L/kg
  bioavailability: 47.2%
  AUC(0-t): 1.56 µM·h
  Cmax: 245 nM
[1]; male CD-1 mice
  clearance: 16.7 mL/min/kg
  half-life: 6.13 h
  Vd: 8.33 L/kg
  bioavailability: 53.9%
  AUC(0-t): 2.24 µM·h
  Cmax: 176 nM
[2]
  IC50: 82 nM
[3]
  IC50: 6.88 nM

## COc1ccc(-c2sc(C(=O)N3CC4CNCC4C3)cc2-c2ccc(C#N)c(F)c2)cc1F (centres unmarked) [Hydrochloride of compound 9]
[2]
  IC50: 118 nM
[3]
  IC50: 15.8 nM

## COc1ccc(-c2sc(C(=O)N3CCNCC3)cc2-c2ccc(C#N)c(F)c2)cc1F [Hydrochloride of compound 5]
[2]
  IC50: 345 nM

## CN[C@@H]1CCCN(C(=O)c2cc(-c3ccc(C#N)c(F)c3)c(-c3ccc4c(c3)nnn4CC(C)(C)O)s2)C1 [Hydrochloride of compound 121]
[4]
  IC50: 20500 nM
[5]
  IC50: 14.3 nM
[6]; QD
  Mean tumor volume ± SEM (mm^3) (Day 28): 75 ± 4 mm^3
  TGI (%): 103.19%
[3]
  IC50: 7.7 nM

## COc1ccc(-c2sc(C(=O)N3CC[C@@H](N)C3)cc2-c2ccc(C#N)c(F)c2)cc1F [Hydrochloride of compound 12]
[2]
  IC50: 393 nM

## COc1ccc(-c2sc(C(=O)N3CCC4(CCNC4)CC3)cc2-c2ccc(C#N)c(F)c2)cc1F [Hydrochloride of compound 10]
[2]
  IC50: 192 nM
[3]
  IC50: 22.4 nM

## Cn1cc2cc(-c3sc(C(=O)N4CCC[C@@H](N)C4)cc3-c3ccc(C#N)c(F)c3)ccc2n1 [Hydrochloride of compound 36]
[1]; female CD-1 mice
  clearance: 37.3 mL/min/kg
  half-life: 2.01 h
  Vd: 4.71 L/kg
  bioavailability: 49.6%
  AUC(0-t): 0.971 µM·h
  Cmax: 224 nM
[1]; male CD-1 mice
  clearance: 31.5 mL/min/kg
  half-life: 2.1 h
  Vd: 4.47 L/kg
  bioavailability: 33.9%
  AUC(0-t): 0.742 µM·h
  Cmax: 148 nM
[5]
  IC50: 3.44 nM
[6]; BID
  Mean tumor volume ± SEM (mm^3) (Day 28): 53 ± 3 mm^3
  TGI (%): 109.13%
[6]; QD
  Mean tumor volume ± SEM (mm^3) (Day 28): 87 ± 11 mm^3
  TGI (%): 99.65%
[3]
  IC50: 1.17 nM

## COc1ccc(-c2sc(C(=O)NC3CC4CCC3N4)cc2-c2ccc(C#N)c(F)c2)cc1F (centres unmarked) [Hydrochloride of compound 15]
[2]
  IC50: 310 nM

## COc1ccc(-c2sc(C(=O)N3CCCC[C@@H](N)C3)cc2-c2ccc(C#N)c(F)c2)cc1F [Hydrochloride of compound 8]
[2]
  IC50: 120 nM
[3]
  IC50: 8.73 nM
